Measurements as given in US9505761B2, “Bicyclic compounds and their use as antibacterial agents and beta-lactamase inhibitors” (FEDORA PHARMACEUTICALS INC., priority 2011, dated 2016).

Experiments:
Assay in all cases: β-lactamase inhibitory activity, spectrophotometric, nitrocefin
Format in all cases: biochemical
[1] = molecular target: TEM-1 (Escherichia coli, UniProt P62593); settings: nitrocefin substrate, 490 nM as printed
Method: (§1) The inhibitory activities of present compounds against various enzymes were measured by spectrophotometric assay using […] and using nitrocefin as a substrate (J. Antimicrob. Chemother., 28, pp 775-776 (1991)). The concentration of inhibitor (IC50) which inhibits by 50% the reaction of hydrolysis of nitrocefin by the enzyme is determined.

[2] = molecular target: CMY-2 (Klebsiella pneumoniae, UniProt Q48434)
Method: as §1

[3] = molecular target: KPC-2 (Klebsiella pneumoniae, UniProt Q9F663)
Method: as §1

[4] = molecular target: CTX-M-9 (Escherichia coli, UniProt Q9L5C8)
Method: as §1

O=C(NO[C@H]1CCNC1)[C@@H]1CC[C@@H]2CN1C(=O)N2OS(=O)(=O)O [Ex. 2, (2S,5R)-7-oxo-N-[(3S)-pyrrolidin-3-yloxy]-6-(sulfooxy)-1,6-diazabicyclo[3.2.1]octane-2-carboxamide]
IC50 [1]: 136 ± 12 nM | IC50 [2]: 32 ± 3 nM | IC50 [3]: 73 ± 7 nM | IC50 [4]: 127 ± 9 nM
